US9833497B2, “Human originated EGF domain proteins and use of the same” (CHENGDU SOURCEBIO LIMITED-LIABILITY COMPANY, priority 2013, dated 2017)

Assays:
Format in all cases: cell-based
[1] = tested on: Moraxella catarrhalis; assay: MIC against Gram-negative bacteria: Moraxella catarrhalis; conditions: 96-well plate, 5×10^5 CFU/mL, 37° C., 10 h
How it was run: (§1)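 Read-out is absence of bacterial growth, with MIC set at the lowest recombinant protein concentration achieving it. Bacteria, pre-grown in LB to McFarland 0.5 and resuspended, were exposed at 5×10^5 CFU/mL to two-fold diluted human EGF domain proteins in triplicate at 37° C, 175 rpm.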

[2] = tested on: Aeromonas hydrophila; assay: MIC against Gram-negative bacteria: Aeromonas hydrophila; conditions: 96-well plate, 5×10^5 CFU/mL, 37° C., 10 h
How it was run: as §1

[3] = tested on: Serratia marcescens; assay: MIC against Gram-negative bacteria: Serratia marcescens; conditions: 96-well plate, 5×10^5 CFU/mL, 37° C., 10 h
How it was run: as §1

[4] = tested on: Citrobacter diversus; assay: MIC against Gram-negative bacteria: Citrobacter diversus; conditions: 96-well plate, 5×10^5 CFU/mL, 37° C., 10 h
How it was run: as §1

[5] = tested on: Enterobacter cloacae; assay: MIC against Gram-negative bacteria: Enterobacter cloacae; conditions: 96-well plate, 5×10^5 CFU/mL, 37° C., 10 h
How it was run: as §1

[6] = tested on: Proteus mirabilis; assay: MIC against Gram-negative bacteria: Proteus mirabilis; conditions: 96-well plate, 5×10^5 CFU/mL, 37° C., 10 h
How it was run: as §1

[7] = tested on: Proteus vulgaris; assay: MIC against Gram-negative bacteria: Proteus vulgaris; conditions: 96-well plate, 5×10^5 CFU/mL, 37° C., 10 h
How it was run: as §1

[8] = tested on: E. coli BL21; assay: MIC against Gram-negative bacteria: E. coli BL21; conditions: 96-well plate, 5×10^5 CFU/mL, 37° C., 10 h
How it was run: as §1

[9] = tested on: Pseudomonas aeruginosa; assay: MIC against Gram-negative bacteria: Pseudomonas aeruginosa; conditions: 96-well plate, 5×10^5 CFU/mL, 37° C., 10 h
How it was run: as §1

[10] = tested on: Klebsiella pneumonia; assay: MIC against Gram-negative bacteria: Klebsiella pneumonia; conditions: 96-well plate, 5×10^5 CFU/mL, 37° C., 10 h
How it was run: as §1

[11] = tested on: E. coli DH5α; assay: Antibacterial activity: MIC and growth curve against E. coli DH5α in 96-well plate; conditions: minimal inhibitory concentration against E. coli DH5α; 96-well plate, 5×10^5 CFU/mL, 37° C., judged after 8 h
How it was run: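 Log-phase bacteria (OD600 ~0.5) resuspended in LB at 5×10^5 CFU/mL, exposed to recombinant protein at 50, 25, 12.5 μg/mL final in triplicate, 37 °C shaking at 175 rpm. OD600 read every 30 min; MIC is lowest concentration showing no growth.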

Substance	MIC M. catarrhalis [1]	MIC A. hydrophila [2]	MIC S. marcescens [3]	MIC C. diversus [4]	MIC E. cloacae [5]	MIC P. mirabilis [6]	MIC P. vulgaris [7]	MIC E. coli BL21 [8]	MIC P. aeruginosa [9]	MIC K. pneumonia [10]	MIC [11]
PRT662 (RIYFCQIPCLNGGRCIGRDECWCPANSTGKFCH; listed as Homo sapiens)	25 µg/mL	12.5 µg/mL	50 µg/mL	25 µg/mL	25 µg/mL	50 µg/mL	12.5 µg/mL	12.5 µg/mL	25 µg/mL	50 µg/mL	25 µg/mL
PRT663 (DVNECDDLNGPAVLCVHGYCENTEGSYRCHCSPGYVAEAGPPHCT; listed as Homo sapiens)	12.5 µg/mL	25 µg/mL	12.5 µg/mL	50 µg/mL	12.5 µg/mL	25 µg/mL	50 µg/mL	25 µg/mL	50 µg/mL	25 µg/mL	100 µg/mL
PRT664 (DINECLTLGLCKDAECVNTRGSYLCTCRPGLMLDPSRSRCV; listed as Homo sapiens)	25 µg/mL	50 µg/mL	25 µg/mL	12.5 µg/mL	25 µg/mL	50 µg/mL	12.5 µg/mL	50 µg/mL	25 µg/mL	12.5 µg/mL	25 µg/mL
PRT665 (GIDRCAAGATNVCGPGTCVNLPDGYRCVCSPGYQLHPSQAYCT; listed as Homo sapiens)	12.5 µg/mL	50 µg/mL	25 µg/mL	25 µg/mL	25 µg/mL	25 µg/mL	50 µg/mL	50 µg/mL	25 µg/mL	12.5 µg/mL	25 µg/mL
PRT668 (DINECRHPGTCPDGRCVNSPGSYTCLACEEGYRGQSGSCV; listed as Homo sapiens)	25 µg/mL	50 µg/mL	100 µg/mL	100 µg/mL	12.5 µg/mL	25 µg/mL	50 µg/mL	50 µg/mL	12.5 µg/mL	50 µg/mL	12.5 µg/mL
PRT670 (DVDECASRASCPTGLCLNTEGSFACSACENGYWVNEDGTACE; listed as Homo sapiens)	12.5 µg/mL	12.5 µg/mL	25 µg/mL	25 µg/mL	12.5 µg/mL	25 µg/mL	12.5 µg/mL	12.5 µg/mL	25 µg/mL	12.5 µg/mL	25 µg/mL
PRT671 (RVVVCPLPCMNGGQCSSRNQCLCPPDFTGRFCQ; listed as Homo sapiens)	25 µg/mL	25 µg/mL	12.5 µg/mL	12.5 µg/mL	12.5 µg/mL	12.5 µg/mL	25 µg/mL	12.5 µg/mL	12.5 µg/mL	12.5 µg/mL	50 µg/mL
PRT672 (DIDECMLFGSEICKEGKCVNTQPGYECYCKQGFYYDGNLLECV; listed as Homo sapiens)	12.5 µg/mL	12.5 µg/mL	12.5 µg/mL	25 µg/mL	12.5 µg/mL	25 µg/mL	50 µg/mL	25 µg/mL	12.5 µg/mL	25 µg/mL	12.5 µg/mL
PRT673 (DVDECLDESNCRNGVCENTRGGYRCACTPPAEYSPAQRQCL; listed as Homo sapiens)	25 µg/mL	50 µg/mL	50 µg/mL	25 µg/mL	25 µg/mL	50 µg/mL	12.5 µg/mL	12.5 µg/mL	50 µg/mL	50 µg/mL	50 µg/mL
PRT674 (DVDECQDPAACRPGRCVNLPGSYRCECRPPWVPGPSGRDCQ; listed as Homo sapiens)	25 µg/mL	50 µg/mL	25 µg/mL	25 µg/mL	12.5 µg/mL	12.5 µg/mL	50 µg/mL	25 µg/mL	50 µg/mL	25 µg/mL	12.5 µg/mL
PRT676 (DINECAMPGVCRHGDCLNNPGSYRCVCPPGHSLGPSRTQCI; listed as Homo sapiens)	25 µg/mL	12.5 µg/mL	12.5 µg/mL	50 µg/mL	25 µg/mL	12.5 µg/mL	50 µg/mL	50 µg/mL	12.5 µg/mL	50 µg/mL	25 µg/mL
PRT677 (ETDECRLNQNICGHGECVPGPPDYSCHCNPGYRSHPQHRYCV; listed as Homo sapiens)	25 µg/mL	12.5 µg/mL	50 µg/mL	25 µg/mL	25 µg/mL	50 µg/mL	12.5 µg/mL	25 µg/mL	12.5 µg/mL	50 µg/mL	50 µg/mL
PRT679 (DLNECAKPHLCGDGGFCINFPGHYKCNCYPGYRLKASRPPVCE; listed as Homo sapiens)	12.5 µg/mL	25 µg/mL	25 µg/mL	50 µg/mL	12.5 µg/mL	25 µg/mL	50 µg/mL	50 µg/mL	25 µg/mL	25 µg/mL	12.5 µg/mL
PRT680 (DVNECAEGSPCSPGWCENLPGSFRCTCAQGYAPAPDGRSCL; listed as Homo sapiens)	50 µg/mL	12.5 µg/mL	25 µg/mL	25 µg/mL	25 µg/mL	12.5 µg/mL	50 µg/mL	25 µg/mL	25 µg/mL	50 µg/mL	12.5 µg/mL
PRT683 (DIDECSQDPSLCLPHGACKNLQGSYVCVCDEGFTPTQDQHGCE; listed as Homo sapiens)	25 µg/mL	50 µg/mL	25 µg/mL	25 µg/mL	12.5 µg/mL	12.5 µg/mL	50 µg/mL	25 µg/mL	50 µg/mL	25 µg/mL	12.5 µg/mL
PRT684 (APVLCPLICHNGGVCVKPDRCLCPPDFAGKFCQ; listed as Homo sapiens)	12.5 µg/mL	50 µg/mL	12.5 µg/mL	25 µg/mL	12.5 µg/mL	25 µg/mL	50 µg/mL	25 µg/mL	50 µg/mL	25 µg/mL	12.5 µg/mL
PRT685 (DVNECLEGDFCFPHGECLNTDGSFACTCAPGYRPGPRGASCL; listed as Homo sapiens)	50 µg/mL	50 µg/mL	50 µg/mL	12.5 µg/mL	12.5 µg/mL	25 µg/mL	50 µg/mL	25 µg/mL	12.5 µg/mL	50 µg/mL	50 µg/mL
PRT688 (DVDECQLFRDQVCKSGVCVNTAPGYSCYCSNGYYYHTQRLECI; listed as Homo sapiens)	12.5 µg/mL	25 µg/mL	50 µg/mL	50 µg/mL	12.5 µg/mL	50 µg/mL	100 µg/mL	12.5 µg/mL	25 µg/mL	50 µg/mL	25 µg/mL
